One series is described as follows: Log D determination. In kind it is physicochemical. The conditions noted are these: octanol / phosphate buffer pH 7.4. As for the experimental part: An aliquot (˜50 μL) of the formulated radiotracer was added to a test tube containing 2.5 mL of octanol and 2.5 mL of phosphate buffer solution (pH 7.4). The test tube was mixed by vortex for 2 minutes and then centrifuged for 2 minutes to fully separate the aqueous and organic phase. A sample taken from the octanol layer (0.1 mL) and the aqueous layer (1.0 mL) was saved for radioactivity measurement. An additional aliquot of the octanol layer (2.0 mL) was carefully transferred to a new test tube containing 0.5 mL of octanol and 2.5 mL of phosphate buffer solution (pH 7.4). The previous procedure (vortex mixing, centrifugation, sampling, and transfer to the next test tube) was repeated until six sets of aliquot samples had been prepared. The radioactivity of each sample was measured in a well counter (Perkin-Elmer, Waltham, Mass.). The log D of each set of samples was derived by the following equation: log D=log (decay-corrected radioactivity in octanol sample×10/decay-corrected radioactivity in phosphate buffer sample).

Another series has as its target HDAC4 (Homo sapiens (Human), UniProt P56524). As to the kind of experiment: HDAC inhibition assay. The settings on record: read-out: IC50 HDAC4.
For the next series, the target named is HDAC1 through HDAC9. As to the kind of experiment: HDAC inhibition assay, isoform panel. It counts as biochemical. The conditions noted are these: for IC50 / binding towards HDAC isoforms (in words): HDAC1, HDAC2, HDAC3 and HDAC6. The text has this:
(§1) All histone deacetylases were purchased from BPS Bioscience. […] All the other reagents were purchased from Sigma-Aldrich.

The next series has as its target HDAC1 (Homo sapiens (Human), UniProt Q13547). Briefly: HDAC inhibition assay. The settings on record: read-out: IC50 HDAC1.
The next series concerns cell cultures. Briefly: Efficacy in cell cultures. In kind it is cell-based.
Series [1] deals with histone deacetylases. As to the kind of experiment: Rodent PET/CT imaging with [11C]CN133. It counts as in vivo, rats (Sprague Dawley). As for the experimental part:
Male Sprague-Dawley rats were utilized in pairs, anesthetized with inhalational isoflurane (Forane) at 3% in a carrier of 2 L/min medical oxygen and maintained at 2% isoflurane for the duration of the scan. The rats were arranged head-to-head in a Triumph Trimodality PET/CT/SPECT scanner (Gamma Medica, Northridge, Calif., USA). Rats were injected standard references or vehicle via a lateral tail vein catheterization at the start of PET acquisition. Dynamic PET acquisition lasted for 60 minutes and was followed by computed tomography (CT) for anatomic coregistration. PET data were reconstructed using a 3D-MLEM method resulting in a full width at half-maximum resolution of 1 mm. Reconstructed images were exported from the scanner in DICOM format along with an anatomic CT for rodent studies. These files were imported to PMOD (PMOD Technologies, Ltd.) and manually coregistered using six degrees of freedom.
Volumes of interest (VOIs) were drawn manually as spheres in brain regions guided by high resolution CT structural images and summed PET data, with a radius no less than 1 mm to minimize partial volume effects. Time-activity curves (TACs) were exported in terms of decay corrected activity per unit volume at specified time points with gradually increasing intervals. The TACs were expressed as percent injected dose per unit volume for analysis.

The next series addresses HDAC9 (Homo sapiens (Human), UniProt Q9UKV0). As to the kind of experiment: HDAC inhibition assay. The conditions noted are these: read-out: IC50 HDAC9.
A further series has as its target HDAC3 (Homo sapiens (Human), UniProt O15379). Briefly: HDAC inhibition assay. The conditions noted are these: read-out: IC50 HDAC3.
The target in the next series is HDAC6 (Homo sapiens (Human), UniProt Q9UBN7). Briefly: HDAC inhibition assay. In kind it is biochemical.
Sequence of HDAC6 (Q9UBN7 whole entry): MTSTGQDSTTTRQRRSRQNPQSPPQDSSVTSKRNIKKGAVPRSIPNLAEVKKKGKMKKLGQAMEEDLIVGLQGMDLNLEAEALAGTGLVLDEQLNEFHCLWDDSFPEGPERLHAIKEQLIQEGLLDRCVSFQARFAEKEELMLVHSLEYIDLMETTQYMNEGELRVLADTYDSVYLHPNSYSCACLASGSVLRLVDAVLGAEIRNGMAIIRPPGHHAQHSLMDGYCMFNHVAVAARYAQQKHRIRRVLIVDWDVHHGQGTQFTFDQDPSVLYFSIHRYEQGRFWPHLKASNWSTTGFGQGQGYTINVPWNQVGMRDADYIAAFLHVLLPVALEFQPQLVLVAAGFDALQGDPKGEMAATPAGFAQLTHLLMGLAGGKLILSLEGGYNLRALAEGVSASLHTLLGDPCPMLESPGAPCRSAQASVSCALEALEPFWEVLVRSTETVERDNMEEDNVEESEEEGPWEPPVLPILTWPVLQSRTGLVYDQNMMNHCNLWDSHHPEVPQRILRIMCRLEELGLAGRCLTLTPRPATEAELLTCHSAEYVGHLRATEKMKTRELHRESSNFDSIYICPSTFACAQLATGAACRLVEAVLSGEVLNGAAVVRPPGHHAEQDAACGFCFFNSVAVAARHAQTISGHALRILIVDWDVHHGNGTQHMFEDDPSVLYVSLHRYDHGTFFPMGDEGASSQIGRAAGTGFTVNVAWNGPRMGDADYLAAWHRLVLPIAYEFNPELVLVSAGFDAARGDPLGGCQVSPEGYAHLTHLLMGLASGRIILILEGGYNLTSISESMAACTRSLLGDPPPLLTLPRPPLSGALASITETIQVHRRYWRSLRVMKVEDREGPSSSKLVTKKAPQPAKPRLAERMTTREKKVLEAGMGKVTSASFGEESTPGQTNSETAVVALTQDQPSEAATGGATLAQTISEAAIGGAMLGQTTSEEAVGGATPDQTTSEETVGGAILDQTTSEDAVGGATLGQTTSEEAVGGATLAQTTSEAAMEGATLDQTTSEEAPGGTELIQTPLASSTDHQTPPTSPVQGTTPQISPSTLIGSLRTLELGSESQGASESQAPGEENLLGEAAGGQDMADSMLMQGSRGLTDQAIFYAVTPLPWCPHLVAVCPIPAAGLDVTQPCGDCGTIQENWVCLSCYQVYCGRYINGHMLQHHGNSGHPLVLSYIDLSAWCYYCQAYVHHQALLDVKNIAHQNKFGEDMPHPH
From the text: as §1

A further series concerns the target HDAC8 (Homo sapiens (Human), UniProt Q9BY41). Briefly: HDAC inhibition assay. In kind it is biochemical.
From the text: as §1

For a further series, the target named is HDAC5 (Homo sapiens (Human), UniProt Q9UQL6). As to the kind of experiment: HDAC inhibition assay. The settings on record: read-out: IC50 HDAC5.
The nature of series [2]: Off target binding assays. The conditions noted are these: at 100 times its HDAC IC50.
The next series has as its target HDAC7 (Homo sapiens (Human), UniProt Q8WUI4). Briefly: HDAC inhibition assay. The conditions noted are these: read-out: IC50 HDAC7.
Series [3] deals with histone deacetylases. Briefly: Baboon PET/MR imaging with [11C]CN133. In kind it is in vivo, baboon (Papio anubis). The settings on record: for changes in vital signs: tracer dose or blocking dose; for VT (Ichese MAI), Baseline / VT (Logan Plot), Baseline: [11C]CN133 distribution volume, t*=35 min to 80 min. As for the experimental part:
A female Papio Anubis baboon, deprived of food for 12 hours prior to the study, was administered intramuscular ketamine (10 mg/kg) and intubated. For maintenance of anesthesia throughout the study, the baboon was provided 1%-4% isoflurane (Forane) in a mixture of medical oxygen and nitrogen. The baboon was catheterized antecubitally for radiotracer injection and a radial arterial line was placed for metabolite analysis. MR-PET images were acquired in a BiographmMR scanner (Siemens, Munich, Germany), and PET compatible 8-channel coil arrays for non-human primate brain imaging with a PET resolution of 5 mm and field of view of 59.4 cm and 25.8 cm (transaxial and axial, respectively). Dynamic PET image acquisition was initiated followed by administration of the radiotracer in a homogenous solution of 10% ethanol and 90% isotonic saline. An […] sequence began after 30 minutes of the baseline scan for anatomic coregistration. […] Both scans were carried out in the same animal on the same day, separated by 2.5 hours. In both scans, 4-5 mCi of [^11C]CN133 was administered to the baboon. Dynamic data from the PET scans were recorded in list mode and corrected for attenuation. Baboon data were reconstructed using a 3D-OSEM method resulting in a full width at half-maximum resolution of 4 mm.
Volumes of interest (VOIs) were drawn manually as spheres in brain regions guided by high resolution MR structural images and summed PET data, with a radius no less than 4 mm. A common VOI mask was applied to both baboon scans. Time-activity curves (TACs) were exported in terms of decay corrected activity per unit volume at specified time points with gradually increasing intervals. The TACs were expressed as percent injected dose per unit volume for analysis.
Arterial samples collected during imaging from the baboon were centrifuged to obtain plasma, which was then removed and placed in an automated gamma counter that was calibrated to the PET scanner. Metabolite analysis was conducted on a custom automated robot fitted with Phenomenex SPE Strata-X 500 mg solid phase extraction cartridges that were primed with ethanol (2 mL) and deionized water (20 mL). Protein precipitation was achieved by addition of plasma (300 μL) to acetonitrile (300 μL), which was centrifuged for 1 minute to obtain protein-free plasma (PFP). 300 μL of PFP/acetonitrile solution was diluted into deionized water (3 mL), loaded onto the C18 cartridge, and removed of polar metabolites with 100% water. Next, a series of extractions were performed using water and acetonitrile in quantities: 95:5, 90:10, 85:15, 80:20, 70:30, 60:40, 30:70 and 100% acetonitrile at a volume of 4 mL. A control experiment was performed before metabolite analysis to determine the retention of the parent compound by injection of a small amount of [^11C]CN133 onto a test series of extraction cartridges. Each sample was counted in a WIZARD2 Automatic Gamma Counter to determine the presence of radiolabeled metabolites.
CN147 blocks ˜40% of [^11C]CN133 binding in NHP whole brain and in cerebellum. Plasma-normalized data were evaluated by volume of interest analysis (VOI) at the whole brain level and at level of the cerebellum. VOI data were then applied to distribution volume (VT) data analysis by two graphical methods using PMOD software, tabulated in Tables A and B below. Logan Plot and Ichese MAI methods were clarified from previous NHP imaging analyses to provide an accurate VT estimate (+/− standard error) from data beginning 35 min after injection of radiotracer (t*=35 min) until the end of the scan (t=80min).

The nature of series [4]: Plasma protein binding assay, baboon plasma. It counts as in vitro ADME. The conditions noted are these: method derives % unbound, read-out: plasma protein binding (PPB) (converted). As for the experimental part: An aliquot of radiotracer in saline (10 μL) was added to a sample of baboon plasma (0.8 mL, pooled from two separate animals). The mixture was gently mixed by repeated inversion and incubated for 10 minutes at room temperature. Following incubation a small sample (20 μL) was removed to determine the total radioactivity in the plasma sample (AT; AT=Abound+Aunbound). An additional 0.2 mL of the plasma sample was placed in the upper compartment of a Centrifree tube (Amicon, Inc., Beverly, Mass., USA) and then centrifuged for 10 minutes. The upper part of the Centrifree tube was discarded, and an aliquot (20 μL) from the bottom part of the tube was removed to determine the amount of radioactivity that passed through the membrane (Aunbound). Plasma protein binding was derived by the following equation: % unbound=Aunbound×100/AT.

Series [5] is described as follows: Plasma protein binding assay, human plasma. It counts as in vitro ADME. The settings on record: method derives % unbound, read-out: plasma protein binding (PPB) (converted).

The structures appear in SMILES notation. “Also recorded” adds a separate entry of the source. Bounds are passed on as bounds.

As usually defined, the IC50 is the concentration at which inhibition is half-maximal.

Sequence of HDAC3 (O15379 whole entry): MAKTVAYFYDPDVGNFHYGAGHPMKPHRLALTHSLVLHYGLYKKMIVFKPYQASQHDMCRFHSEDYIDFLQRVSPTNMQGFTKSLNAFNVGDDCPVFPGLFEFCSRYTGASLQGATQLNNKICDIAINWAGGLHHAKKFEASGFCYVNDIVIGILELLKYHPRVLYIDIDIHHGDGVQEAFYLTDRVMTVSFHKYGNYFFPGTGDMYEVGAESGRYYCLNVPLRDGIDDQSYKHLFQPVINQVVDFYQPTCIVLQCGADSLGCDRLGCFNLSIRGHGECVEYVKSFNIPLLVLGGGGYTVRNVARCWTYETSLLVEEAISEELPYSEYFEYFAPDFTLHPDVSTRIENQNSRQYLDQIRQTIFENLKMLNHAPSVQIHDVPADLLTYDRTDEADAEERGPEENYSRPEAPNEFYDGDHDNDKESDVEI
Sequence of HDAC3 (Q9Y618 395-489 partner): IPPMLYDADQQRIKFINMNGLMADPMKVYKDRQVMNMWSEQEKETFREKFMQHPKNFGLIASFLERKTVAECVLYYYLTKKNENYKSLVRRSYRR
Sequence of HDAC9 (Q9UKV0 whole entry): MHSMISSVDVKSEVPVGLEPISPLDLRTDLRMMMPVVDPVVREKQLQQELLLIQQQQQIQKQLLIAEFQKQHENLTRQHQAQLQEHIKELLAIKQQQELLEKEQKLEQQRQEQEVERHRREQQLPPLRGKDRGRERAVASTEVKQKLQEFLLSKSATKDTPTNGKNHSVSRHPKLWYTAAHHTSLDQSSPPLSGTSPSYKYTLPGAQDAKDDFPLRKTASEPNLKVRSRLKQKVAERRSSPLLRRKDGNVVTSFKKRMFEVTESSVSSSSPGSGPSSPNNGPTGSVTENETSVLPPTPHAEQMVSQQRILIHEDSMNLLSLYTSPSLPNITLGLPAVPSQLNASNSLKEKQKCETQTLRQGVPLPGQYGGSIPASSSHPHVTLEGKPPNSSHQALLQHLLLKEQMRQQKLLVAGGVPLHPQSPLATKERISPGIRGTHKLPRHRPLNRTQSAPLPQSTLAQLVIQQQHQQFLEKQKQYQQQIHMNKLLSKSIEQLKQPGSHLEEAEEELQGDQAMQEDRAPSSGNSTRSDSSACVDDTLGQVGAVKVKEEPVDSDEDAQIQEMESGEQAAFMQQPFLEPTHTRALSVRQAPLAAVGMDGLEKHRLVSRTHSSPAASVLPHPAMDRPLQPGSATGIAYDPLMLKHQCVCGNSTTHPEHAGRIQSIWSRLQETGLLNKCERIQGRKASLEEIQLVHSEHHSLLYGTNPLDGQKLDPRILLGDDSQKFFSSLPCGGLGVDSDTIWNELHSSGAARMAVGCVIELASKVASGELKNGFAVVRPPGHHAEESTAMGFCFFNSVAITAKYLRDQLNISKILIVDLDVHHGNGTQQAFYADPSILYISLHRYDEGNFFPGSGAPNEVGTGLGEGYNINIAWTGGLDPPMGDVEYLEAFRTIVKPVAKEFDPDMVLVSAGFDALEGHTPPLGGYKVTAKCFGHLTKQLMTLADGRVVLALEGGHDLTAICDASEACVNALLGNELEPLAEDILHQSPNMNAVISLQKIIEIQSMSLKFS
Sequence of HDAC7 (Q8WUI4 whole entry): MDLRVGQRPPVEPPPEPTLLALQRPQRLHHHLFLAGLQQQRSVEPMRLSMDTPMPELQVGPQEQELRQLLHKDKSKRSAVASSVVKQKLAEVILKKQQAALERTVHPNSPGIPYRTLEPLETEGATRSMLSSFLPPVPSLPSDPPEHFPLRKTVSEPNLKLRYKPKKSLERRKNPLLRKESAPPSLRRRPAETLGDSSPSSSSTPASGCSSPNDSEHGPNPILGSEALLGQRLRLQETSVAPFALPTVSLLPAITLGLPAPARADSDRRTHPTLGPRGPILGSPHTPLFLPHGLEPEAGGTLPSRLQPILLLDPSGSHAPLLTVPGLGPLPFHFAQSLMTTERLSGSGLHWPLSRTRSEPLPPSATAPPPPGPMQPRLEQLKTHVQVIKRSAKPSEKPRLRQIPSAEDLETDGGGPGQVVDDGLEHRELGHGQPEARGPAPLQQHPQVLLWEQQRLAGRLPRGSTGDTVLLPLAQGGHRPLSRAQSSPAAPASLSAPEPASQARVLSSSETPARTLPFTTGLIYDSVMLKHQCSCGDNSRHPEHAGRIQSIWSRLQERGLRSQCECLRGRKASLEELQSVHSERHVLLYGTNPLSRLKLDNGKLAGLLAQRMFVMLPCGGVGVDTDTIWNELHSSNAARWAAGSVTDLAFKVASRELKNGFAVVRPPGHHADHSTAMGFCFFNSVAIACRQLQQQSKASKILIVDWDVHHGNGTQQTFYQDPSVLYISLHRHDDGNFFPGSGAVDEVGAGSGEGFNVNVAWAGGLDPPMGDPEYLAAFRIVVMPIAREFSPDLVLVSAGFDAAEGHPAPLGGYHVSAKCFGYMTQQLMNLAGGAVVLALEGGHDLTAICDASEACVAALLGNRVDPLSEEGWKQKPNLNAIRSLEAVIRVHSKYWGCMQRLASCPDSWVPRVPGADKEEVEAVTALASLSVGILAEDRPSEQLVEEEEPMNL
Sequence of HDAC4 (P56524 whole entry, canonical isoform): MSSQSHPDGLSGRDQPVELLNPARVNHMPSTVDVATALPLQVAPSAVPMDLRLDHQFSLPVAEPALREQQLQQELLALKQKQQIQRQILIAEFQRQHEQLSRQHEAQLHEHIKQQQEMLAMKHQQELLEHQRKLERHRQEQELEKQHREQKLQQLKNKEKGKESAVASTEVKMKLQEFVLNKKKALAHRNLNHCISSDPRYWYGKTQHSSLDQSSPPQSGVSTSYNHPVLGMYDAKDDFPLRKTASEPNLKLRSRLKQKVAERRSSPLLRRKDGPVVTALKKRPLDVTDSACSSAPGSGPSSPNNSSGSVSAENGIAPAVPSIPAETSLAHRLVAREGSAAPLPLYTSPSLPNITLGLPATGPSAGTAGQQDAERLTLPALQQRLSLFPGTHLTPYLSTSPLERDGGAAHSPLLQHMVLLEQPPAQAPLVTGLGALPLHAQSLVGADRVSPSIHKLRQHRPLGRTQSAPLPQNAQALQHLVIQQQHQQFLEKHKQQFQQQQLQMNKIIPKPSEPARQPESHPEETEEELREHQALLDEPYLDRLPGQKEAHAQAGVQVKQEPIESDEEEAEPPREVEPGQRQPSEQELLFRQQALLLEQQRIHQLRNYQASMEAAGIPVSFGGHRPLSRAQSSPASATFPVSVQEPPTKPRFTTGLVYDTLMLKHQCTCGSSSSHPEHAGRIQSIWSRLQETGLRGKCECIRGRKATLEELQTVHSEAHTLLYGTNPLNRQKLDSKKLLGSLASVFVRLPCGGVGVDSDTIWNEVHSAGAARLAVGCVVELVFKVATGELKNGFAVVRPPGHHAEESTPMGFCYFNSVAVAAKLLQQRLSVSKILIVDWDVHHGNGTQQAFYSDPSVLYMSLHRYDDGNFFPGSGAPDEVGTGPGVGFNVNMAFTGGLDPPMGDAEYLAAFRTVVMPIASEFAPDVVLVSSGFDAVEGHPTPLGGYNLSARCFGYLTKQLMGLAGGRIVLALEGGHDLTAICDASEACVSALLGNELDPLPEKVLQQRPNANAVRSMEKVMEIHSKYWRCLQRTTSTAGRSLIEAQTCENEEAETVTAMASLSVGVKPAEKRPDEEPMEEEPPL
Method for HDAC3: (§2) All histone deacetylases were purchased from BPS Bioscience. […] All the other reagents were purchased from Sigma-Aldrich. Caliper EZ reader II system was used to collect all data. […] Purified HDACs were incubated with 2 μM carboxyfluorescein (FAM)-labeled acetylated or trifluoroacetylated peptide substrate (Broad Substrate A and B respectively) and test compound for 60 minutes at room temperature, in HDAC assay buffer that contained 50 mM HEPES (pH 7.4), 100 mM KCl, 0.01% BSA and 0.001% Tween-20. […] Substrate and product were separated electrophoretically and fluorescence intensity in the substrate and product peaks was determined and analyzed by Labchip EZ Reader. The reactions were performed in duplicate for each sample. IC50 values were automatically calculated by Origin 8 using 4 Parameter Logistic Model. The percent inhibition was plotted against the compound concentration, and the IC50 value was determined from the logistic dose-response curve fitting by Origin 8.0 software.
Method for HDAC4: as §2
Method for HDAC5: as §2
Method for HDAC7: as §2

`CN(Cc1ccc(/C=C/C(=O)NO)cc1)CC12CC3CC(CC(C3)C1)C2` [CN133, (E)-3-(4-((((3r,5r,7r)-adamantan-1-ylmethyl)(methyl)amino)methyl)phenyl)-N-hydroxyacrylamide]: the “partition coefficient (Log D)” value in “Log D determination” is reported as 2.03. In addition, the IC50 at HDAC4 was 1970 nM; at HDAC1, 0.3 nM; at HDAC9 it was more than 15000 nM; on HDAC3 it was 0.6 nM; against HDAC6 it was 4.1 nM; against HDAC8, more than 15000 nM. Further, the half-maximal inhibitory concentration (IC50) at HDAC5 is 352 nM; at HDAC7, more than 20000 nM. For the same compound, the “IC50 / binding towards HDAC isoforms (in words)” value at HDAC1 through HDAC9 is on record as “low nanomolar; also recorded: sub-nanomolar”. The “selectivity over each of the other HDAC isoforms” value in the series with HDAC1 through HDAC9 (HDAC1-3 and HDAC6 versus other isoforms) was “greater than 100 fold”. In addition, the “efficacy in cell cultures” value in the series with cell cultures is “sub-nanomolar”. Moreover, in the series with histone deacetylases [1] (30-minute pretreatment of CsA 25 mg/kg), the “P-glycoprotein interaction (CsA pretreatment study)” value is “not a Pgp inhibitor”. The reversibility of binding entry in the series with histone deacetylases [1] (CN133 1.0 mg/kg i.v. 20 minutes into baseline scan with [11C]CN133) is given as “reversible inhibitor; also recorded: rapid washout of radioactivity from brain regions”. In addition, in the series on histone deacetylases [1] (peripheral organs (heart wall, kidney cortex, spleen)), the “[11C]CN133 uptake in peripheral organs/regions of rats after treatment” value was “decreased”. In addition, in series [2], the off target binding entry is listed as “minimal (if any) off target binding”. Moreover, the “changes in vital signs” value in the series with histone deacetylases [3] (baboon) was “did not notice any significant changes”. The “blocking of [11C]CN133 uptake in baboon peripheral organs (time-activity curves)” value in the series with histone deacetylases [3] (heart, spleen, kidney, pancreas, CN133 0.5 mg/kg 10-minute pre-treatment, SAHA infusion 5 mg/kg) is reported as “significant blocking”. In addition, the “blocking of [11C]CN133 uptake in baboon brain” value in the series on histone deacetylases [3] (intravenous, CN133 0.01-1.0 mg/kg, CN147 0.5 mg/kg) is “reduced the regional radioactivity uptake”.

Turning to `[11CH3]N(Cc1ccc(/C=C/C(=O)NO)cc1)CC12CC3CCC(CC(C3)C1)C2` [[11C]CN133], the logD in “Log D determination” (read-out: partition coefficient (Log D)) is 2.03. In addition, at HDAC1 through HDAC9, the “IC50 / binding towards HDAC isoforms (in words)” value is “sub-nanomolar”. Moreover, the BBB penetration result in the series with histone deacetylases [1] (rats, intravenous, 60 minutes scan) is on record as “high BBB penetration”. In addition, the “blocking of [11C]CN133 uptake in rat brain after pretreatment” value in the series with histone deacetylases [1] (whole brain, 5-minute pretreatment) is on record as “dose-dependent blocking”. Besides, the fraction unbound at 10 min in series [4] is 0.986. For the same compound, in [5], the fraction unbound at 10 min was 0.945. Besides, in the series with histone deacetylases [3] (Cerebellum VOI), the “VT (Ichese MAI), Baseline” value was found to be 19.45 ± 7.5 and the “VT (Logan Plot), Baseline” value is recorded as 19.28 ± 3.18. In the series with histone deacetylases [3] (Whole Brain VOI), the “VT (Ichese MAI), Baseline” value worked out at 14.65 ± 8.48 and the “VT (Logan Plot), Baseline” value is listed as 14.46 ± 3.83. In addition, in the series on histone deacetylases [3] (baboon), the “time of peak radioactivity in the brain after injection” value is “about 1 minute” and the “changes in vital signs” value is reported as “did not notice any significant changes”. Further, the “tracer uptake in peripheral organs” value with histone deacetylases [3] (baboon heart, kidney, pancreas and spleen) is “good uptake”.

For the origin of these results see patent US10188756B2, “Imaging histone deacetylases with a radiotracer using positron emission tomography” (THE GENERAL HOSPITAL CORPORATION, priority 2013, dated 2019).
